Where two headings read alike, the source gives them in different places.

Drawing on patent US8574563B2 (Bristol-Myers Squibb Company, priority 2006, dated 2013), this text covers EC50 for 23 molecules.

For the assay, the system named is HCV 1b-377-neo replicon cells. Nature of the assay: HCV replicon assay, HCV 1b-377-neo replicon cells (1b FRET). The format is cell-based, Hepatitis C virus genotype 1b. The conditions noted are these: HCV 1b-377-neo replicon cells, HCV 1b genotype, read-out: EC50 range against HCV 1b (Table 2, Range). The procedure: An HCV Replion assay was utilized in the present disclosure, and was prepared, conducted and validated as described in commonly owned PCT/US2006/022197 and in O'Boyle et. al. Antimicrob Agents Chemother. 2005 April; 49(4):1346-53.
HCV 1b-377-neo replicon cells were used to test the currently described compound series as well as cells resistant to compound A due to a Y2065H mutation in NS5A (described in application PCT/US2006/022197). The compounds tested were determined to have more than 10-fold less inhibitory activity on cells resistant to compound A than wild-type cells indicating a related mechanism of action between the two compound series. Thus, the compounds of the present disclosure can be effective to inhibit the function of the HCV NS5A protein and are understood to be as effective in combinations as previously described in application PCT/US2006/022197 and commonly owned WO/04014852. Further, the compounds of the present disclosure can be effective against the HCV 1b genotype. It should also be understood that the compounds of the present disclosure can inhibit multiple genotypes of HCV. […] In one embodiment compounds of the present disclosure are active against the 1a, 1b, 2a, 2b, 3a, 4a, and 5a genotypes.

Take `C[C@H]1OC(=O)NC1C(=O)N1CCC[C@H]1c1ncc(-c2ccc(-c3ccc(-c4cnc([C@@H]5CCCN5C(=O)C5NC(=O)O[C@@H]5C)[nH]4)cc3)cc2)[nH]1` (stereo in doubt) [cj-133, (4S,5R,4′S,5′R)-4,4′-(4,4′-biphenyldiylbis(1H-imidazole-5,2-diyl(2S)-2,1-pyrrolidinediylcarbonyl))bis(5-methyl-1,3-oxazolidin-2-one)]: the EC50 (Hepatitis C virus) fell in the range of 1 to 99 nM.

Consider `COC(=O)NC1CCC(C(=O)N2CCC[C@H]2c2ncc(-c3ccc(-c4ccc(-c5cnc([C@@H]6CCCN6C(=O)C6CCC(NC(=O)OC)C6)[nH]5)cc4)cc3)[nH]2)C1` (stereo in doubt) [cj-149, dimethyl (4,4′-biphenyldiylbis(1H-imidazole-5,2-diyl(2S)-2,1-pyrrolidinediylcarbonyl(1R,3S)-3,1-cyclopentanediyl))biscarbamate], for which, where the note is “Hepatitis C virus”, the EC50 lay within 1 to 99 nM.

For `CN(C)[C@@H](C(=O)N1CCC[C@H]1c1ncc(-c2ccc(-c3ccc(-c4cnc([C@@H]5CCCN5C(=O)[C@@H](c5ccccc5)N(C)C)[nH]4)cc3)cc2)[nH]1)c1ccccc1` [Example 1, (1R,1′R)-2, 2′-(4,4′-biphenyldiylbis (1H-imidazole-5,2-diyl(2S)-2,1-pyrrolidinediyl))bis(N,N-dimethyl-2-oxo-1-phenylethanamine)], the EC50 (Hepatitis C virus) fell in the range of 0.001 to 0.999 nM.

`O=C([C@H](O)c1ccccc1)N1CCC[C@H]1c1ncc(-c2ccc(-c3ccc(-c4cnc([C@@H]5CCCN5C(=O)[C@H](O)c5ccccc5)[nH]4)cc3)cc2)[nH]1` [Example 2, (1R,1′R)-2,2′-(4,4′-biphenyldiylbis(1H-imidazole-5,2-diyl(2S)-2,1-pyrrolidinediyl))bis(2-oxo-1-phenylethanol)]: the EC50 (Hepatitis C virus) lay within 0.001 to 0.999 nM.

For `C[C@@](O)(C(=O)N1CCC[C@H]1c1ncc(-c2ccc(-c3ccc(-c4cnc([C@@H]5CCCN5C(=O)[C@@](C)(O)c5ccccc5)[nH]4)cc3)cc2)[nH]1)c1ccccc1` [Example 3, (2S,2′S)-1,1′-(4,4′-biphenyldiylbis(1H-imidazole-5,2-diyl(2)-2,1-pyrrolidinediyl))bis(1-oxo-2-phenyl-2-propanol)], the EC50 is 0.001 to 0.999 nM.

Take `COC(=O)N[C@@H](C(=O)N1CCC[C@H]1c1ncc(-c2ccc(-c3ccc(-c4cnc([C@@H]5CCCN5C(=O)[C@H](NC(=O)OC)c5ccccc5)[nH]4)cc3)cc2)[nH]1)c1ccccc1` [Example 4, dimethyl (4,4′-biphenyldiylbis(1H-imidazole-5,2-diyl(2S)-2,1-pyrrolidinediyl((1R)-2-oxo-1-phenyl-2,1-ethanediyl)))biscarbamate]: the EC50 (Hepatitis C virus) is 0.001 to 0.999 nM.

As to `CN(C)[C@H](C(=O)N1CCC[C@H]1c1ncc(-c2ccc(-c3ccc(-c4cnc([C@@H]5CCCN5C(=O)[C@H](c5ccccc5)N(C)C)[nH]4)cc3)cc2)[nH]1)c1ccccc1` [Example 5, (1S,1′S)-2,2′-(4,4′-biphenyldiylbis(1H-imidazole-5,2-diyl(2S)-2,1-pyrrolidinediyl))bis(N,N-dimethyl-2-oxo-1-phenylethanamine)], the EC50 (Hepatitis C virus) lay within 1 to 99 nM.

Take `O=C(c1ccccc1)N1CCC[C@H]1c1ncc(-c2ccc(-c3ccc(-c4cnc([C@@H]5CCCN5C(=O)c5ccccc5)[nH]4)cc3)cc2)[nH]1` [Example 6, 5,5′-(4,4′-biphenyldiyl)bis(2-((2S)-1-benzoyl-2-pyrrolidinyl)-1H-imidazole)]: where the note is “Hepatitis C virus”, the EC50 lay in the range of 1 to 99 nM.

`O=C(Cc1ccccc1)N1CCC[C@H]1c1ncc(-c2ccc(-c3ccc(-c4cnc([C@@H]5CCCN5C(=O)Cc5ccccc5)[nH]4)cc3)cc2)[nH]1` [Example 7, 5,5′-(4,4′-biphenyldiyl)bis(2-((2)S-1-(phenylacetyl)-2-pyrrolidinyl)-1H-imidazole)]: the EC50 was in the range of 0.001 to 0.999 nM.

In the case of `CO[C@@H](C(=O)N1CCC[C@H]1c1ncc(-c2ccc(-c3ccc(-c4cnc([C@@H]5CCCN5C(=O)[C@H](OC)c5ccccc5)[nH]4)cc3)cc2)[nH]1)c1ccccc1` [Example 8, 5,5′-(4,4′-biphenyldiyl)bis(2-((2S)-1-((2R)-2-methoxy-2-phenylacetyl)-2-pyrrolidinyl)-1H-imidazole)], under “Hepatitis C virus”, the EC50 lay within 0.001 to 0.999 nM.

On to `O=C([C@H](O)Cc1ccccc1)N1CCC[C@H]1c1ncc(-c2ccc(-c3ccc(-c4cnc([C@@H]5CCCN5C(=O)[C@H](O)Cc5ccccc5)[nH]4)cc3)cc2)[nH]1` [Example 9, (2R,2′R)-1,1′-(4,4′-biphenyldiylbis(1H-imidazole-5,2-diyl(2S)-2,1-pyrrolidindiyl))bis(1-oxo-3-phenyl-2-propanol)], for which the EC50 (Hepatitis C virus) was 1 to 99 nM.

Take `CCC(=O)N1CCC[C@H]1c1ncc(-c2ccc(-c3ccc(-c4cnc([C@@H]5CCCN5C(=O)CC)[nH]4)cc3)cc2)[nH]1` [Example 10, 5,5′-(4,4′-biphenyldiyl)bis(2-((2S)-1-propionyl-2-pyrrolidinyl)-1H-imidazole)]: the 50% effective concentration (EC50) (Hepatitis C virus) lay in the range of 1 to 99 nM.

As for `O=C(C1CC1)N1CCC[C@H]1c1ncc(-c2ccc(-c3ccc(-c4cnc([C@@H]5CCCN5C(=O)C5CC5)[nH]4)cc3)cc2)[nH]1` [Example 11, 5,5′-(4,4′-biphenyldiyl)bis(2-((2S)-1-(cyclopropylcarbonyl)-2-pyrrolidinyl)-1H-imidazole)], the EC50 (Hepatitis C virus) was in the range of 1 to 99 nM.

Consider `O=C(CC1CC1)N1CCC[C@H]1c1ncc(-c2ccc(-c3ccc(-c4cnc([C@@H]5CCCN5C(=O)CC5CC5)[nH]4)cc3)cc2)[nH]1` [Example 12, 5,5′-(4,4′-biphenyldiyl)bis(2-((2S)-1-(cyclopropylacetyl)-2-pyrrolidinyl)-1H-imidazole)], for which the EC50 (Hepatitis C virus) is 1 to 99 nM.

`O=C([C@H]1CCCO1)N1CCC[C@H]1c1ncc(-c2ccc(-c3ccc(-c4cnc([C@@H]5CCCN5C(=O)[C@H]5CCCO5)[nH]4)cc3)cc2)[nH]1` [Example 13, 5,5′-(4,4′-biphenyldiyl)bis(2-((2S)-1-((2R)-tetrahydro-2-furanylcarbonyl)-2-pyrrolidinyl)-1H-imidazole)]: the EC50 (Hepatitis C virus) was in the range of 1 to 99 nM.

As to `CN(C)CC(=O)N1CCC[C@H]1c1ncc(-c2ccc(-c3ccc(-c4cnc([C@@H]5CCCN5C(=O)CN(C)C)[nH]4)cc3)cc2)[nH]1` [Example 14, 2,2′-(4,4′-biphenyldiylbis(1H-imidazole-5,2-diyl(2S)-2,1-pyrrolidinediyl))bis(N,N-dimethyl-2-oxoethanamine)], the EC50 (Hepatitis C virus) was in the range of 100 to 999 nM.

For `C[C@@H](O)C(=O)N1CCC[C@H]1c1ncc(-c2ccc(-c3ccc(-c4cnc([C@@H]5CCCN5C(=O)[C@@H](C)O)[nH]4)cc3)cc2)[nH]1` [Example 15, (2R,2′R)-1,1′-(4,4′-biphesnyldiylbis(1H-imidazole-5,2-diyl(2S)-2,1-pyrrolidinediyl))bis(1-oxo-2-propanol)], the EC50 lay in the range of 1 to 99 nM.

In the case of `CC(C)[C@@H](O)C(=O)N1CCC[C@H]1c1ncc(-c2ccc(-c3ccc(-c4cnc([C@@H]5CCCN5C(=O)[C@H](O)C(C)C)[nH]4)cc3)cc2)[nH]1` [Example 16, (2R,2′R)-1,1′-(4,4′-biphenyldiylbis(1H-imidazole-5,2-diyl(2S)-2,1-pyrrolidinediyl))bis(3-methyl-1-oxo-2-butanol)], for the setting “Hepatitis C virus”, the EC50 lay within 1 to 99 nM.

Turning to `O=C([C@@H](c1ccccc1)N1CCCC1)N1CCC[C@H]1c1ncc(-c2ccc(-c3ccc(-c4cnc([C@@H]5CCCN5C(=O)[C@@H](c5ccccc5)N5CCCC5)[nH]4)cc3)cc2)[nH]1` [Example 17, 5,5′-(4,4′-biphenyldiyl)bis(2-((2S)-1-((2R)-2-phenyl-2-(1-pyrrolidinyl)acetyl)-2-pyrrolidinyl)-1H-imidazole)], the EC50 (Hepatitis C virus) fell in the range of 0.001 to 0.999 nM.

In the case of `O=C([C@@H](c1ccccc1)N1CCOCC1)N1CCC[C@H]1c1ncc(-c2ccc(-c3ccc(-c4cnc([C@@H]5CCCN5C(=O)[C@@H](c5ccccc5)N5CCOCC5)[nH]4)cc3)cc2)[nH]1` [Example 18, 4,4′-(4,4′-biphenyldiylbis(1H-imidazole-5,2-diyl(2S)-2,1-pyrrolidinediyl((1R)-2-oxo-1-phenyl-2,1-ethanediyl)))dimorpholine], the EC50 (Hepatitis C virus) lay in the range of 0.001 to 0.999 nM.

Consider `O=C(C(c1ccccc1)N1CC[C@H](F)C1)N1CCC[C@H]1c1ncc(-c2ccc(-c3ccc(-c4cnc([C@@H]5CCCN5C(=O)C(c5ccccc5)N5CC[C@H](F)C5)[nH]4)cc3)cc2)[nH]1` (stereo partly drawn) [Example 19, 5,5′-(4,4′-biphenyldiyl)bis(2-((2S)-1-(((3S)-3-fluoro-1-pyrrolidinyl)(phenyl)acetyl)-2-pyrrolidinyl)-1H-imidazole)], for which the EC50 lay in the range of 0.001 to 0.999 nM.

On to `O=C(C(c1ccccc1)N1CC[C@H](F)C1)N1CCC[C@H]1c1ncc(-c2ccc(-c3ccc(-c4cnc([C@@H]5CCCN5C(=O)C(c5ccccc5)N5CC[C@H](F)C5)[nH]4)cc3)cc2)[nH]1` (stereo partly drawn) [Example 20, 5,5′-(4,4′-biphenyldiyl)bis(2-((2S)-1-(((3S)-3-fluoro-1-pyrrolidinyl)(phenyl)acetyl)-2-pyrrolidinyl)-1H-imidazole)], for which the EC50 is 1 to 99 nM.

With `CCN(CC)[C@@H](C(=O)N1CCC[C@H]1c1ncc(-c2ccc(-c3ccc(-c4cnc([C@@H]5CCCN5C(=O)[C@@H](c5ccccc5)N(CC)CC)[nH]4)cc3)cc2)[nH]1)c1ccccc1` [Example 21, (1R,1′R)-2,2′-(4,4′-biphenyldiylbis(1H-imidazole-5,2-diyl(2S)-2,1-pyrrolidinediyl))bis(N,N-diethyl-2-oxo-1-phenylethanamine)], the EC50 (Hepatitis C virus) was in the range of 0.001 to 0.999 nM.
